Laboratory results as given in patent US20230142338A1, “THIOPHENYL DERIVATIVES USEFUL FOR MODULATING NUCLEIC ACID SPLICING” (REMIX THERAPEUTICS INC., priority 2020, published 2023).

Assays:
Assay type in all cases: cell-based
[1] = test system: SMN2 CJ mRNA; assay: Gene panel canonical junction qPCR assay: SMN2; details: Table 3, concentration having 50% response in CJ decrease, read-out: SMN2 IC50 (decrease in CJ mRNA levels)
Procedure: (§1) Compounds described herein were used to modulate RNA transcript abundance in cells. The expression of a target mRNA was measured by detecting the formation of an exon-exon junction in the canonical transcript (CJ). A compound mediated exon-inclusion event was detected by observing an increase in formation of a new junction with an alternative exon (AJ). Real-time qPCR assays were used to detect these splicing switches and interrogate the potency of various compounds towards different target genes. A high-throughput real time quantitative PCR (RT-qPCR) assay was developed to measure these two isoforms of the mRNA (CJ and AJ) for an exemplary gene, HTT, together with a control housekeeping gene, GAPDH or GUSB or PPIA, used for normalization. Briefly, the A673 or K562 cell line was treated with various compounds described herein (e.g., compounds of Formula (I)). After treatment, the levels of the HTT mRNA targets were determined from each sample of cell lysate by cDNA synthesis followed by qPCR.
(§2) The A673 cell line was cultured in DMEM with 10% FBS. Cells were diluted with full growth media and plated in a 96-well plate (15,000 cells in 100 ul media per well). The plate was incubated at 37° C. with 5% CO2 for 24 hours to allow cells to adhere. An 11-point 3-fold serial dilution of the compounds was made in DMSO then diluted in media in an intermediate plate. Compounds were transferred from the intermediate plate to the cell plate with the top dose at a final concentration of 10 uM in the well. Final DMSO concentration was kept at or below 0.25%. The cell plate was returned to the incubator at 37° C. with 5% CO2 for an additional 24 hours.
(§3) The K562 cell line was cultured in IMDM with 10% FBS. For K562, cells were diluted with full growth media and plated in either a 96-well plate (50,000 cells in 50 uL media per well) or a 384-well plate (8,000-40,000 cells in 45 uL media per well). An 11-point 3-fold serial dilution of the compounds were made in DMSO then diluted in media in an intermediate plate. Compound was transferred from the intermediate plate to the cell plate with the top dose at a final concentration of 10 uM in the well. Final DMSO concentration was kept at or below 0.25%. Final volume was 100 uL for 96-well plate and 50 uL for 384-well plate. The cell plate was then placed in an incubator at 37° C. with 5% CO2 for 24 hours.
(§4) The cells were then gently washed with 50 uL-100 uL cold PBS before proceeding to addition of lysis buffer. 30 uL-50 uL of room temperature lysis buffer with DNAse I (and optionally RNAsin) was added to each well. Cells were shaken/mixed thoroughly at room temperature for 5-10 minutes for lysis to take place and then 3 uL-5 uL of room temperature stop solution was added and wells were shaken/mixed again. After 2-5 minutes, the cell lysate plate was transferred to ice for RT-qPCR reaction setup. The lysates could also be frozen at −80° C. for later use.
(§5) In some cases, a direct lysis buffer was used. An appropriate volume of 3× lysis buffer (10 mM Tris, 150 mM NaCl, 1.5%-2.5% Igepal and 0.1-1 U/uL RNAsin, pH 7.4) was directly added to either K562 or A673 cells in media and mixed by pipetting 3 times. The plates were then incubated at room temperature with shaking/rocking for 20-50 minutes to allow for lysis to take place. After this time, the cell lysate plate was transferred to ice to set up for the RT-qPCR reactions. The lysates could also be frozen at −80° C. for later use.
(§6) To set up 10 uL RT-qPCR reactions, cell lysates were transferred to 384-well qPCR plates containing the master mix according to the table below. The plates were sealed, gently vortexed, and spun down before the run. The volumes were adjusted accordingly in some instances where the reaction was carried in 20 uL. The table below summarizes the components of the RT-qPCR reactions:
(§7) The RT-qPCR reaction was performed using a QuantStudio (ThermoFisher) under the following fast cycling conditions. […]

[2] = test system: HTT CJ mRNA; assay: Splicing assay (RT-qPCR): decrease in HTT canonical junction (CJ) mRNA; details: A673 or K562 cells, 24 hours treatment; concentration having 50% response in CJ mRNA decrease
Procedure: as §1, §2, §3, §4, §5, §6, §7

[3] = test system: Target C CJ mRNA; assay: Gene panel canonical junction qPCR assay: Target C; details: Table 3, concentration having 50% response in CJ decrease, read-out: Target C IC50 (decrease in CJ mRNA levels)
Procedure: as §1, §2, §3, §4, §5, §6, §7

[4] = test system: HTT AJ mRNA; assay: Splicing assay (RT-qPCR): increase in HTT alternative junction (AJ) mRNA; details: A673 or K562 cells, 24 hours treatment; concentration having 50% response in AJ mRNA increase
Procedure: as §1, §2, §3, §4, §5, §6, §7

[5] = test system: HTT CJ mRNA; assay: Gene panel canonical junction qPCR assay: HTT; details: Table 3, concentration having 50% response in CJ decrease, read-out: HTT IC50 (decrease in CJ mRNA levels)
Procedure: as §1, §2, §3, §4, §5, §6, §7

SMILES | IC50 [1] | AC50 [2] | IC50 [3] | AC50 [4] | IC50 [5]
Cc1cn2cc(NC(=O)c3sc(N4CCN(C)CC4)cc3F)cc(F)c2n1 [Compound 127, 3-fluoro-N-[8-fluoro-2-methylimidazo [1,2-a]pyridin-6-yl]-5-(4-methylpiperazin-1-yl) thiophene-2-carboxamide] | 100 to 1000 nM | > 10000 nM | < 100 nM | > 10000 nM | > 10 nM
Cc1cn2cc(NC(=O)c3sc(C4CCNCC4)cc3Cl)cc(F)c2n1 [Compound 190, 3-chloro-N-[8-fluoro-2-methylimidazo[1,2-a]pyridin-6-yl]-5-(piperidin-4-yl) thiophene-2-carboxamide] | < 100 nM | < 100 nM | 1000 to 10000 nM | 100 to 1000 nM | < 100 nM
Cc1cn2cc(NC(=O)c3sc(C4CCNCC4)cc3F)ncc2n1 [Compound 179, 3-fluoro-N-[2-methylimidazo[1,2-a]pyrazin-6-yl]-5-(piperidin-4-yl)thiophene-2-carboxamide] | 1000 to 10000 nM | 100 to 1000 nM | 1000 to 10000 nM | 1000 to 10000 nM | 100 to 1000 nM
Cc1cn2cc(NC(=O)c3sc(C4CCNCC4)cc3F)cc(Cl)c2n1 [Compound 181, N-[8-chloro-2-methylimidazo[1,2-a]pyridin-6-yl]-3-fluoro-5-(piperidin-4-yl)thiophene-2-carboxamide] | < 100 nM | 100 to 1000 nM | 1000 to 10000 nM | 100 to 1000 nM | 100 to 1000 nM
Cc1cn2nc(NC(=O)c3sc([C@H]4CCN[C@@H](C)C4)cc3F)cc(C)c2n1 [Compound 102, N-[2,8-dimethylimidazo[1,2-b]pyridazin-6-yl]-3-fluoro-5-[(2S,4S)-2-methylpiperidin-4-yl] thiophene-2-carboxamide] | 100 to 1000 nM | 100 to 1000 nM | 1000 to 10000 nM | 1000 to 10000 nM | 100 to 1000 nM
Cc1cn2cc(NC(=O)c3sc(N4CCC(NC(C)(C)C)CC4)cc3F)cc(F)c2n1 [Compound 141, 5-[4-(tert-butylamino)piperidin-1-yl]-3-fluoro-N-[8-fluoro-2-methylimidazo[1,2-a]pyridin-6-yl]thiophene-2-carboxamide] | 1000 to 10000 nM | > 10000 nM | > 10 nM | > 10000 nM | > 10 nM
Cc1cn2cc(NC(=O)c3sc([C@@H]4CCN[C@@H](C)C4)cc3F)cc(F)c2n1 [Compound 116, 3-fluoro-N-[8-fluoro-2-methylimidazo[1,2-a]pyridin-6-yl]-5-[(2S,4R)-2-methylpiperidin-4-yl]thiophene-2-carboxamide] | < 100 nM | 100 to 1000 nM | 1000 to 10000 nM | 100 to 1000 nM | 100 to 1000 nM
Cc1cn2cc(NC(=O)c3sc(N4CCC(NC(C)(C)C)C4)cc3F)cc(F)c2n1 (stereo not drawn) [Compound 137, 5-[3-(tert-butylamino)pyrrolidin-1-yl]-3-fluoro-N-[8-fluoro-2-methylimidazo[1,2-a]pyridin-6-yl]thiophene-2-carboxamide] | > 10 nM | > 10000 nM | 100 to 1000 nM | > 10000 nM | > 10 nM
Cc1cn2nc(NC(=O)c3sc(C4CCNCC4)cc3F)cc2c(C)n1 [Compound 191, N-[4,6-dimethylpyrazolo[1,5-a]pyrazin-2-yl]-3-fluoro-5-(piperidin-4-yl)thiophene-2-carboxamide] | 100 to 1000 nM | 1000 to 10000 nM | 1000 to 10000 nM | 1000 to 10000 nM | 1000 to 10000 nM
